# In US20170205398A1, “DRUG SCREENING AND POTENCY ASSAYS” (REGENMED (CAYMAN) LTD., priority 2011, published 2017):
# System: γ-glutamyl transpeptidase (GGT)
# Test: Amphotericin B knockdown of SRC/NKA ex vivo GGT (western blot band density, semilogarithmic dose response)
# Assay type: cell-based, human
# Excerpt: Morphological, genotypic, phenotypic and functional changes to 2D cultured SRC were monitored to 72hrs following exposure to escalating doses of the well known nephrotoxin, Amphotericin B (Amp B). The TC50 was estimated by Amp B knockdown of SRC/NKA ex vivo GGT activity.
# GGT inhibition detected by western blot is shown in below in Table 16.1.
# Results from semilogarithmic dose response analysis are shown below in Table 16.2.
structure (smiles),measurement,setting,value
C[C@@H]1[C@H](O)[C@@H](C)/C=C/C=C/C=C/C=C/C=C/C=C/C=C/[C@H](O[C@@H]2O[C@H](C)[C@@H](O)[C@H](N)[C@@H]2O)C[C@@H]2O[C@](O)(C[C@@H](O)C[C@@H](O)[C@H](O)CC[C@@H](O)C[C@@H](O)CC(=O)O[C@H]1C)C[C@H](O)[C@H]2C(=O)O [Amphotericin B],IC50,"2D cultured SRC, exposure to 72 hrs, sigmoidal fit Log(inhibitor) vs response, read-out: IC50 of inhibitory effect on SRC-mediated GGT",32.3 µM
same,LOGIC50,"Log(inhibitor) vs response fit, 2D cultured SRC",1.510
same,GGT western blot band density (response),[c] 0.01,18764
same,inv response (inverse of band density),[c] 0.01,5.329E−05
same,GGT western blot band density (response),[c] 0.1,18959
same,inv response (inverse of band density),[c] 0.1,5.275E−05
same,GGT western blot band density (response),[c] 1,17112
same,inv response (inverse of band density),[c] 1,5.844E−05
same,GGT western blot band density (response),[c] 10,16611
same,inv response (inverse of band density),[c] 10,6.02E−05
same,GGT western blot band density (response),[c] 100,8227
same,inv response (inverse of band density),[c] 100,0.0001216
same,GGT western blot band density (response),[c] 1000,8000
same,inv response (inverse of band density),[c] 1000,0.000125
same,GGT western blot band density (response),[c] 10000,7800
same,inv response (inverse of band density),[c] 10000,0.0001282
